The text below walks through data of PMC6349869, “The palladacycle complex AJ-5 induces apoptotic cell death while reducing autophagic flux in rhabdomyosarcoma cells” (Cell Death Discovery, 2019).

Assay type in all cases: cell-based, human
One assay relates to RH30 cells. As to the kind of experiment: MTT cell viability assay, RH30. To be noted: RH30 (aRMS), 48 h. The protocol:
RH30 human aRMS cells (kindly provided by Associate Professor Judith Davie, Southern Illinois University), AX-OH-1 human aRMS and FL-OH-1 human eRMS cells (kindly provided by Professor Stefan Bath, University of Cape Town) were cultured in Roswell Park Memorial Institute Medium (RPMI)-1640 (Sigma Aldrich, Missouri, USA). […] Cell morphology was monitored using an Olympus CKX41 inverted microscope (MSAC Ltd, UK) and imaged with an EVOS™ XL AMEX1000 Core Imaging System (Thermo Fisher Scientific, Massachusetts, USA).
Cells were seeded in 96-well plates and treated the next day with a range of AJ-5 concentrations (0.1–1.0 μM) or vehicle ([…]) for 48 h. Cell viability was measured using the 3-(4,5-dimethylthiazol-2-yl)-2,5-diphenyl-trazolium bromide (MTT) assay (11465007001; Sigma Aldrich) according to the manufacturer’s instructions. Mean cell viability was calculated as a percentage of the mean vehicle control. At least three independent experiments in quadruplicate were performed from which the half maximal inhibitory concentration (IC50) was determined using GraphPad Prism version 6.0 (GraphPad Software, California, USA). The selectivity index (SI) was determined by dividing the IC50 of a normal cell line by the IC50 of a cancer cell line.

The next assay concerns RD cells. Nature of the assay: Autophagic flux by western blotting (p62; LC3II with bafilomycin A1), RD. As to the method: AJ-5, synthesized as previously described, was dissolved in dimethyl sulfoxide (DMSO) (D8418; Sigma Aldrich) to give a 5 mM AJ-5 stock which was stored at room temperature (RT) and used within 5 days. AJ-5 was diluted in cell culture medium to achieve the desired final concentration and a vehicle control (DMSO) of the same concentration was prepared simultaneously. Cells were treated at a confluency of 60%. For western blot experiments to determine autophagy flux, cells were treated with 200 nM bafilomycin A1 (B1793; Sigma Aldrich) for 2 h post AJ-5 treatment. Doxorubicin (z/26/0167; Teva Pharmaceutical Industries Ltd, Israel) was used as a positive control in Caspase-Glo experiments at a concentration of 0.5 µM.
Cells were lysed at 4 °C in whole-cell lysis buffer (0.125 M Tris-HCl pH 6.8, 4% SDS, 0.2% glycerol, 0.1% β-mercaptoethanol and a pinch of bromophenol blue) and boiled for 10 min. Proteins were resolved by SDS-PAGE (6–15% gels) and transferred to Hybond ECL membranes (Amersham, UK). […] Densitometry readings were obtained using ImageJ v1.50i[58] and protein expression levels were represented as a ratio of protein of interest/p38 loading control normalized to the vehicletreated control sample where appropriate. […]

Another assay concerns RH30 and RD cells. Nature of the assay: Annexin V-FITC/PI assay. To be noted: IC50. As to the method: Cells were seeded, trypsinized, washed and counted as described for cell cycle analysis. The FITC Annexin V/Dead Cell Apoptosis kit (V13242; Thermo Fisher Scientific) was used according to the manufacturer's instructions. A negative control of unstained cells and positive controls of cells treated with 3% formaldehyde for 30 min on ice and stained with either PI or Annexin V were used to gate the flow cytometer for viable, early apoptotic, late apoptotic, and necrotic cell populations. Samples were subjected to FACS analyses as described for cell cycle analysis. Data were obtained and analysed using CellQuest Pro version 5.2.1. software.

Where only a bound is given, the exact number is not on record here.

In the assay on RH30 cells, `CC(C)c1cccc(C(C)C)c1[N+]1=Cc2cccc[c]2[Pd-2]1([Cl])[P+](CC[P+](c1ccccc1)(c1ccccc1)[Pd-2]1([Cl])[c]2ccccc2C=[N+]1c1c(C(C)C)cccc1C(C)C)(c1ccccc1)c1ccccc1` (stereo not shown) [AJ-5] gave a half-inhibitory concentration (IC50) of at most 200 nM. The “Autophagic flux judged by p62 levels” value with RD cells (0.1 µM or IC50, 24 and 48 h) is reported as “increases autophagic flux”. For the same molecule, the “LC3II in the presence of bafilomycin A1, compared with vehicle” value in the assay with RD cells (IC50 24 h then 200 nM bafilomycin A1 2 h) is given as “negligible change in LC3II”. Also, the “Cell death (Annexin V-FITC/PI)” value with RH30 and RD cells is “induces apoptotic and necrotic cell death”.
